In patent US4822787A, “3-pyrrolidinylthio-1-azabicyclo(3.2.0)-hept-2-ene-2-carboxylic acid compounds and antimicrobial activity thereof” (Fujisawa Pharmaceutical Co., Ltd., priority 1986, dated 1989) one finds MIC data, which are given here for two molecules.

Format in all cases: cell-based
One assay has as its system P. aeruginosa 3036. As to the kind of experiment: in vitro Antimicrobial Activity, two-fold agar-plate dilution method (MIC), P. aeruginosa 3036. The conditions noted are these: Pseudomonas aeruginosa, Mueller Hinton agar, 37° C., 20 hours, read-out: minimal inhibitory concentration (MIC). As for the experimental part:
(§1) in vitro Antimicrobial Activity was determined by the two-fold agar-plate dilution method as described below. One loopful of 100-fold dilution of an overnight culture of a test strain in Mueller Hinton broth (Difco) (approximately 10^6 viable cells per ml) was spot-inoculated on Mueller Hinto agar^(*) (Difco) containing graded concentrations of the test compound, and the minimal inhibitory concentration (MIC) was expressed in terms of μg/ml after incubation at 37° C. for 20 hours.

The test system of a further assay is H. influenzae 58. As to the kind of experiment: in vitro Antimicrobial Activity, two-fold agar-plate dilution method (MIC), H. influenzae 58. As to conditions: Haemophilus influenzae, added 5% horse blood-chocolate agar, 37° C., 20 hours, read-out: minimal inhibitory concentration (MIC). As for the experimental part:
in vitro Antimicrobial Activity was determined by the two-fold agar-plate dilution method as described below. One loopful of 100-fold dilution of an overnight culture of a test strain in Mueller Hinton broth (Difco) (approximately 10^6 viable cells per ml) was spot-inoculated on Mueller Hinto agar^(*) (Difco) containing graded concentrations of the test compound, and the minimal inhibitory concentration (MIC) was expressed in terms of μg/ml after incubation at 37° C. for 20 hours. [(*)added 5% horse blood-chocolate agar for the test of H. influenzae]

The test system of a further assay is S. aureus 2496. The experiment in a line: in vitro Antimicrobial Activity, two-fold agar-plate dilution method (MIC), S. aureus 2496. As to conditions: Staphylococcus aureus, Mueller Hinton agar, 37° C., 20 hours, read-out: minimal inhibitory concentration (MIC). The method, then: as §1
For another assay, the system named is E. cloacae 3013. The experiment in a line: in vitro Antimicrobial Activity, two-fold agar-plate dilution method (MIC), E. cloacae 3013. The conditions noted are these: Enterobacter cloacae, Mueller Hinton agar, 37° C., 20 hours, read-out: minimal inhibitory concentration (MIC). The method, then:
as §1

Structures are written as SMILES. Values after ≈ are worked out from the molar mass of the structure shown.

In the case of `C[C@@H](O)[C@H]1C(=O)N2C(C(=O)O)=C(S[C@@H]3CN[C@H](COCCNC(N)=O)C3)[C@H](C)[C@H]12` [Compound of this invention, (4R,5S,6S)-6-[(1R)-1-hydroxyethyl]-4-methyl-7-oxo-3-[(2S,4S)-2-{(2-ureidoethyl)oxymethyl}pyrrolidin-4-yl]thio-1-azabicyclo[3.2.0]hept-2-ene-2-carboxylic acid], the MIC in the assay with P. aeruginosa 3036 is 0.39 µg/mL (≈ 0.91 µM); in the assay with H. influenzae 58, 0.1 µg/mL (≈ 0.233 µM); in the assay with S. aureus 2496, 0.05 µg/mL (≈ 0.117 µM); in the assay on E. cloacae 3013, ≤ 0.025 µg/mL.
In the case of `C[C@@H](O)[C@H]1C(=O)N2C(C(=O)O)=C(S[C@@H]3CN[C@H](CNC(N)=O)C3)[C@H](C)[C@H]12` [Reference Compound, (4R,5S,6S)-6-[(1R)-1-hydroxyethyl]-4-methyl-7-oxo-3-[(2S,4S)-2-ureidomethylpyrrolidin-4-yl]thio-1-azabicyclo[3.2.0]hept-2-ene-2-carboxylic acid], the MIC was determined as 1.56 µg/mL (≈ 4.06 µM) in the assay on P. aeruginosa 3036, 0.78 µg/mL (≈ 2.03 µM) with H. influenzae 58, 1.56 µg/mL (≈ 4.06 µM) in the assay with S. aureus 2496 and 0.1 µg/mL (≈ 0.26 µM) in the assay with E. cloacae 3013.
